Experimental data taken from PubChem BioAssay (NCI).
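Five concentrations, 48 hours, 96-well plates. The concentration for 50% growth inhibition is given as GI50. TGI: concentration producing complete growth inhibition.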

Columns and labels:
Assay in all cases: inhibition of tumour cell growth, NCI panel, 48 h
HOP-62 NSCLC = test system: HOP-62 NSCLC
NCI-H522 lung = test system: NCI-H522 lung
SNB-75 CNS = test system: SNB-75 CNS
ACHN renal = test system: ACHN renal
OVCAR-4 ovarian = test system: OVCAR-4 ovarian
TK-10 renal = test system: TK-10 renal
HS 578T breast = test system: HS 578T breast
SW-620 colon = test system: SW-620 colon
SN12C renal = test system: SN12C renal
HOP-92 NSCLC = test system: HOP-92 NSCLC

Row | Structure (SMILES) | TGI (HOP-62 NSCLC) [µM] | TGI (NCI-H522 lung) [µM] | TGI (SNB-75 CNS) [µM] | TGI (ACHN renal) [µM] | TGI (OVCAR-4 ovarian) [µM] | TGI (TK-10 renal) [µM] | TGI (HS 578T breast) [µM] | TGI (SW-620 colon) [µM] | TGI (SN12C renal) [µM] | TGI (HOP-92 NSCLC) [µM] | GI50 (HOP-62 NSCLC) [µM] | GI50 (ACHN renal) [µM] | GI50 (OVCAR-4 ovarian) [µM] | GI50 (HS 578T breast) [µM]
1 | COC(=O)C1Cc2c([nH]c3ccccc23)-c2[nH]c3ccccc3c2CC(NC(C)=O)C(=O)N2CCCC2C(=O)N1 (configuration not stated) | > 100 | > 100 | > 100 | > 100 | > 100 | > 100 | > 100 | > 100 | > 100 |  |  |  |  | 
2 | O=C(CSc1nnc(-c2ccc(N=Cc3ccc(Cl)cc3)cc2)o1)Nc1cccc([N+](=O)[O-])c1 | > 100 | > 100 | > 100 | > 100 | > 100 | > 100 |  | > 100 | > 100 |  |  |  |  | 
3 | O=C1C(=Cc2ccc([N+](=O)[O-])o2)C(=O)N(CCc2ccccc2)S(=O)(=O)N1CCc1ccccc1 |  | 34.5 | > 100 | 31.2 | 30 | > 100 |  | 33.9 | > 100 | 33.5 |  |  |  | 
4 | CCOC(=O)C1=C(O)c2ccc(OC)cc2C(=O)C1=O | > 100 | > 100 | > 100 | > 100 | > 100 | > 100 |  | > 100 | > 100 | > 100 |  |  |  | 
5 | O=C1C(Cl)C(c2ccc([N+](=O)[O-])cc2)N1n1cnc2ccccc2c1=O (configuration not stated) | > 100 | > 100 | 39 | > 100 | 25.2 | 83.2 |  | > 100 | > 100 |  |  |  |  | 
6 | O=C1NC(Cc2ccccc2)C(=O)N2CCCC12 (configuration not stated) | > 100 | > 100 | > 100 | > 100 | > 100 | > 100 |  | > 100 | > 100 | > 100 |  |  |  | 
7 | CN(C)C1(c2cc3ccccc3s2)CCCCC1 | > 100 | 41.7 | > 100 | > 100 | > 100 | > 100 |  | > 100 | > 100 | 63.6 |  |  |  | 
8 | N/C(=N/N=C/c1cccc(F)c1)NO | 82.1 | 96.1 | > 100 | > 100 | > 100 | > 100 |  | > 100 | > 100 | > 100 |  |  |  | 
9 | N#CC(C#N)C1CN2CCC1CC2 (configuration not stated) | > 100 | > 100 | > 100 | > 100 | > 100 | > 100 | > 100 | > 100 | > 100 |  |  |  |  | 
10 | COc1ccc(N2C(=O)C3C=CC(n4[nH]c(=O)n(Cc5ccccc5)c4=O)CC3C2=O)cc1 (configuration not stated) | > 100 | > 100 | > 100 | > 100 |  | > 100 |  | > 100 | > 100 | > 100 |  |  |  | 
11 | CC(=O)Nc1ccc(C(=O)n2[nH]c(C)c(/C=C3\C(=O)C=Cc4ccccc43)c2=O)cc1 | > 100 | > 100 | > 100 | > 100 | > 100 |  |  | > 100 | > 100 |  |  |  |  | 
12 | Cc1cc(=O)[nH]c(NNC(C#N)c2ccc(N(C)C)cc2)n1 (configuration not stated) | > 100 | > 100 | > 100 | > 100 | > 100 | > 100 |  | > 100 | > 100 | > 100 |  |  |  | 
13 | CCCCc1c2c(nc3c1CCCC3=O)CCCC2 | > 100 | > 100 |  | > 100 |  |  |  | > 100 | > 100 |  |  |  |  | 
14 | CCOP(=O)(OCC)C(C)(CC)/N=C(\N)NC#N (configuration not stated) | > 100 |  | > 100 | > 100 | > 100 | > 100 | > 100 | > 100 | > 100 |  |  |  |  | 
15 | COCC1N=C(c2cc(OC)c(OC)c(OC)c2-c2cc3c(cc2[C@@H](C)O)OCO3)O[C@H]1c1ccccc1 (some centres not stated) | > 100 | > 100 | > 72.3 |  | > 100 |  |  | > 100 | > 100 | > 84.5 |  |  |  | 
16 | COc1cc(CC(=O)c2cc3c(cc2-c2ccccc2)OCO3)cc(OC)c1OC | > 100 | > 100 | 35.8 | > 100 | > 100 | > 100 |  | > 100 | > 100 | 42 |  |  |  | 
17 | COc1cc(C(=O)N(C(=O)N2CCCCC2)c2ccccc2)cc(OC)c1OC | > 100 |  | > 100 | > 100 |  |  |  | > 100 | > 100 | > 100 |  |  |  | 
18 | c1ccc(Sc2nc(Sc3ccccc3)nc(Sc3ccccc3)n2)cc1 | > 100 | > 100 |  | > 100 | > 100 | > 100 | 75.4 |  | > 100 |  |  |  |  | 
19 | CC(C)OC(=O)c1cccnc1/C=N/O | > 100 | > 100 | > 100 | > 100 |  | > 100 |  | > 100 | > 100 |  |  |  |  | 

Row | Structure (SMILES) | TGI (HOP-62 NSCLC) [µM] | TGI (NCI-H522 lung) [µM] | TGI (SNB-75 CNS) [µM] | TGI (ACHN renal) [µM] | TGI (OVCAR-4 ovarian) [µM] | TGI (TK-10 renal) [µM] | TGI (HS 578T breast) [µM] | TGI (SW-620 colon) [µM] | TGI (SN12C renal) [µM] | TGI (HOP-92 NSCLC) [µM] | GI50 (HOP-62 NSCLC) [µM] | GI50 (ACHN renal) [µM] | GI50 (OVCAR-4 ovarian) [µM] | GI50 (HS 578T breast) [µM]
20 | Nc1ccn(CCCC(c2ccccc2)P(=O)(O)O)c(=O)n1 (configuration not stated) | > 100 | > 100 | > 100 | > 100 |  | > 100 |  | > 100 | > 100 | > 100 |  |  |  | 
21 | O=P(Nc1cccc(Cl)c1)(Oc1ccccc1)N(CCCl)CCCl (configuration not stated) | 31.1 | > 100 | 30.4 | 47.3 | 25.4 | 30.6 |  | 30.7 | 29.1 | 24.7 |  |  |  | 
22 | CCSc1[nH]c(NC(=NC(C)C)NC(=O)c2ccccc2)c(C(N)=O)c1C(N)=O |  |  | > 10 |  | > 10 | > 10 |  | > 10 | > 10 | > 10 |  |  |  | 
23 | COC(=O)[C@@H](NC(=O)c1ccc(CNC(=O)/C(C)=C/c2ccccc2)cc1)C(C)C | > 100 | > 100 | > 100 | > 100 | > 100 | > 100 |  | > 100 | > 100 | > 100 |  |  |  | 
24 | COc1cc(O)c2c(=O)c(OC)c(-c3ccc(OC)c(OC)c3)oc2c1.[Sn] | > 100 | > 100 | > 100 | > 100 | > 100 | > 100 | > 100 | > 100 | > 100 |  | > 100 | > 100 | 8.24 | 
25 | C[C@]12CCC(=O)C=C1CC[C@@H]1C2CC[C@@]2(C)C1CC[C@@H]2OC(=O)C12OC1CCC2=O (some centres not stated) | 70 | 23.1 | 33.9 | 29.3 | 41.5 | 35.9 |  | 32.1 | 55.5 | 37.2 |  |  |  | 
26 | O=c1cc(NNc2cccc(F)c2)[nH]c(=S)[nH]1 | > 100 |  |  | > 100 | > 100 | > 100 | > 100 | > 100 | > 100 | 99.5 |  |  |  | 
27 | CC(=O)N1CCN(CCCCN2c3ccccc3Sc3cc(N=[N+]=[N-])ccc32)CC1 | 27.4 | 26.3 | 26.2 | 28.2 |  | 31.3 | 32.7 | 29.3 | 31.4 |  |  |  |  | 
28 | CN(C)CCNC(=O)c1cccc2[nH]c(-c3ccc(Cl)cc3)nc12 | 22.5 | 19.9 | 15.3 |  | 21.2 |  |  | 18.3 | 19.4 | 17 |  |  |  | 
29 | COC(=O)CC1NC(=O)C1C(C)(OC)OC (configuration not stated) | > 100 |  | > 100 | > 100 | > 100 | > 100 |  | > 100 | > 100 |  |  |  |  | 
30 | COc1ccc(NC(=O)C2=CC(=O)c3ccc(O)cc3C2=O)c(OC)c1 | > 100 |  | > 100 | > 100 | > 100 | > 100 |  | > 100 | > 100 | > 100 |  |  |  | 
31 | O=C1NC2OC(CO)C(O)C(O)C2O1 (configuration not stated) | > 100 | > 100 | > 100 | > 100 | > 100 | > 100 |  | > 100 | > 100 | > 100 |  |  |  | 
32 | O=C(NCCCc1cn[nH]c(=O)n1)c1cccc2nc3ccccc3nc12 | > 100 |  |  | > 100 | > 100 | > 100 | > 100 | > 100 | > 100 | > 100 |  |  |  | 
33 | CC(C)(CO)NC(=O)c1cccs1 | > 100 | > 100 |  | > 100 | > 100 | > 100 |  | > 100 | > 100 | > 100 |  |  |  | 
34 | COc1ccc(N2C(=O)C(=O)C3(CCCCC3)C2=O)c(OC)c1OC |  | > 100 | > 100 | > 100 | > 100 | > 100 | > 100 | > 100 | > 100 |  |  |  |  | 
35 | CNC(=O)c1cc(Oc2cccc3nc(NC(=O)Nc4ccc(F)cc4F)ccc23)ccn1 |  |  |  | > 50 |  |  | 3.99 |  |  |  |  | 2.13 |  | 1.4
36 | NNC(=S)NN/C=C(\C=Nc1ccccc1)[N+](=O)[O-] | > 100 | > 100 | > 100 | > 100 | > 100 | > 100 |  | > 100 | > 100 | > 100 |  |  |  | 
37 | COc1ccc(/C=C(\C2=NC(=O)CS2)c2nc3ccccc3[nH]2)cc1 | > 100 | 49.7 | 71.6 | > 100 | > 100 | > 100 |  | > 100 | > 100 | > 100 |  |  |  | 
